For one compound, mutagenic call results are on record in PubChem BioAssay AID1259407 (Chemical Carcinogenesis Research Information System (CCRIS), 2018).

Activity calls are given as the source filed them. No rule for the calls is given here.

The subject of the series is CCRIS mutagenicity, Ames/micronucleus/aberration tests. Briefly: CCRIS mutagenicity studies.

Regarding `Nc1ccccc1S`, the mutagenic call was “active; positive (structural changes and ploidy)” (End Point: In vitro chromosomal aberrations, Test System: Chinese hamster lung (CHL/IU) cells, Metabolic Activation: Rat, Liver, S9, Phenobarbital and 5,6-benzoflavone); “inactive; negative” (Test System: AMES SALMONELLA TYPHIMURIUM, Strain/Indicator: TA98, Metabolic Activation: RAT, LIVER, S-9, PHENOBARBITAL AND BETA-NAPHTHOFLAVONE, Method: PREINCUBATION); “inactive; negative” (Test System: AMES SALMONELLA TYPHIMURIUM, Strain/Indicator: TA100, Metabolic Activation: NONE, Method: PREINCUBATION); “inactive; negative” (Test System: AMES SALMONELLA TYPHIMURIUM, Strain/Indicator: TA100, Metabolic Activation: RAT, LIVER, S-9, PHENOBARBITAL AND BETA-NAPHTHOFLAVONE, Method: PREINCUBATION); “inactive; negative” (Test System: AMES SALMONELLA TYPHIMURIUM, Strain/Indicator: TA1535, Metabolic Activation: NONE, Method: PREINCUBATION); “inactive; negative” (Test System: AMES SALMONELLA TYPHIMURIUM, Strain/Indicator: TA1535, Metabolic Activation: RAT, LIVER, S-9, PHENOBARBITAL AND BETA-NAPHTHOFLAVONE, Method: PREINCUBATION). For the same compound, the mutagenic call by setting is: (Test System: AMES SALMONELLA TYPHIMURIUM, Strain/Indicator: TA1537, Metabolic Activation: NONE, Method: PREINCUBATION) “inactive; negative”; (Test System: AMES SALMONELLA TYPHIMURIUM, Strain/Indicator: TA1537, Metabolic Activation: RAT, LIVER, S-9, PHENOBARBITAL AND BETA-NAPHTHOFLAVONE, Method: PREINCUBATION) “inactive; negative”; (Test System: AMES SALMONELLA TYPHIMURIUM, Strain/Indicator: TA1537, Metabolic Activation: RAT, LIVER, S-9, SODIUM PHENOBARBITAL AND 5,6-BENZOFLAVONE, Method: PREINCUBATION) “inactive; negative”; (Test System: E. COLI, Strain/Indicator: WP2UVRA, Metabolic Activation: NONE, Method: PREINCUBATION) “inactive; negative”; (Test System: E. COLI, Strain/Indicator: WP2UVRA, Metabolic Activation: RAT, LIVER, S-9, PHENOBARBITAL AND BETA-NAPHTHOFLAVONE, Method: PREINCUBATION) “inactive; negative”.
